Source: paper PMC12592400, “A unique inhibitor conformation selectively targets the DNA polymerase PolC of Gram-positive priority pathogens” (Nature Communications, 2025)
≈ marks a conversion by molar mass, not a printed value. Where two headings read alike, the source gives them in different places.

Tests used:
[1] = test system: Staphylococcus aureus NRS384 (MRSA; methicillin-resistant); test: Broth microdilution MIC; type: cell-based; settings: read-out: Measured MIC
Procedure: (§1) Minimal inhibitory concentrations (MICs) were determined by WuXi Apptec, on behalf of Acurx Pharmaceuticals, Inc., for the Gram-positive pathogens: Enterococcus faecium ATCC 700221 (VRE; vancomycin-resistant), Enterococcus faecalis ATCC 29212, Staphylococcus aureus NRS384 (MRSA; methicillin-resistant), Staphylococcus aureus ATCC 29213 (MSSA; methicillin-sensitive), and Streptococcus pneumoniae ATCC 49619 (PRSP; penicillin-resistant). As a control, Gram-negative Escherichia coli ATCC 25922 was included. All strains were obtained from ATCC with the exception of Staphylococcus aureus NRS384, which was obtained from NARSA (Network on Antimicrobial Resistance in Staphylococcus aureus, now part of BEI resources). Bacteria were cultured according to the manuals provided by the suppliers and stored in 25% glycerol (final concentration) at –80 °C.
(§2) Bacterial strains were streaked out onto MHA plates (Mueller-Hinton II Agar; BD-211438) and incubated at 37 °C for 20 h except for S. pneumoniae and Enterococci, which were streaked on blood agar (Huankai-24070). S. pneumoniae was incubated in 5% CO2. Single colonies were suspended in 5 mL sterile saline, the turbidity was adjusted to 0.20 (Siemens MicroScan turbidity metre; equal to ~1.0 × 10^8 colony forming units (CFU)/mL) and then diluted 200x in MHIIB (Mueller-Hinton II […] (BD-211438)) medium. The MHIIB media was supplemented with 5% Lysed Horse Blood (Shanghai YuanMu Biological Technology Co. Ltd. YM-U161) for S. pneumoniae.
(§3) ACX compounds were dissolved in pure DMSO (Sigma 276855) to a concentration of 20 mg/mL. From this, twofold serial dilutions (from […]) in DMSO were transferred to a 96-well source-plate (Axygen-wipp02280) with pure DMSO as a control. 2 µL from the source plate was then transferred into 96-well culture plates (Costar 3788) and inoculated with 198 µL of the bacterial suspension so that each well contained ~5.0 × 10^5 CFU/mL bacteria, 1% DMSO and serially diluted compounds at 0 µg/mL and 0.0625-64 µg/mL in 100 µl medium. For NRS384, which was tested in a separate experiment, 99 µL of bacterial suspension was added to 1 µL of compound. The plates were incubated in ambient atmosphere at 37 °C for 20 h.

[2] = test system: Enterococcus faecalis ATCC 29212; test: Broth microdilution MIC; type: cell-based
Procedure: as §1, §2, §3

[3] = test system: Escherichia coli ATCC 25922; test: Broth microdilution MIC; type: cell-based
Procedure: as §1, §2, §3

[4] = test system: Enterococcus faecium ATCC 700221 (VRE; vancomycin-resistant); test: Broth microdilution MIC; type: cell-based; settings: for MIC: Enterococcus faecium, read-out: Measured MIC; for Measured MIC: Table 2, polC WT, strain ATCC 700221
Procedure: as §1, §2, §3

[5] = test system: Streptococcus pneumoniae ATCC 49619 (PRSP; penicillin-resistant); test: Broth microdilution MIC; type: cell-based; settings: read-out: Measured MIC
Procedure: as §1, §2, §3

[6] = test system: Staphylococcus aureus ATCC 29213 (MSSA; methicillin-sensitive); test: Broth microdilution MIC; type: cell-based; settings: read-out: Measured MIC
Procedure: as §1, §2, §3

[7] = test system: E. faecium strains with polC mutations (A1281T, F1276I, F1276L, F1276S); test: Cross-resistance MIC of reduced susceptible E. faecium strains; type: cell-based, Enterococcus faecium; settings: for raise of MIC by A1281T: E. faecium polC A1281T versus WT (Table 2); for MIC: Enterococcus faecium
Procedure: Strains with reduced susceptibility to ACX compounds were generated by WuXi Apptec on behalf of Acurx Pharmaceuticals, Inc., using E. faecium ATCC 700221 as parental strain.
Agar MICs for the wild-type strain were determined on Blood agar (Huankai). Compounds and linezolid were dissolved in 100% DMSO and vancomycin in ultrapure water. Strains were inoculated onto agar plates, incubated at 37 °C for 20-24 h after which colonies were suspended in sterile 0.9% saline at different bacterial concentrations. 5 μL of bacterial suspensions was individually spotted on agar plates supplemented with compounds at different concentrations, resulting in final concentrations of 10^–1, 10^–2, 10^–3, 10^–4, 10^–5, 10^–6, and 10^–7 per spot. After incubation for 20-24 h, bacterial growth was assessed by visual inspection.
For frequency of resistance (FOR) studies, colonies from the agar plate were suspended into sterile 0.9% saline to get 10^8-10^9 CFU bacterial cells per mL. […] The suspensions were also serially diluted with 0.9% saline and spotted onto agar to determine the actual inoculum. All agar plates were incubated at 37 °C for 48 h. FOR was defined as colony number on each compound-containing plate per CFU number of actual inoculum. Resistant colonies were subcultured on the corresponding compound plates to confirm that colonies were resistant and stable.
Confirmed resistant colonies were used for cross-resistance studies, as described above.
Paired-end short read sequencing data from selected mutants (generated by BGISEQ) as well as the corresponding wild-type parental strain was analysed against the reference genomes for E. faecium strain ATCC 700221 (https://genomes.atcc.org/genomes/f9d13a716ccb4f78) using Geneious R10.2.6 (Biomatters Ltd). Variants were called using the Find Variants/SNPs function with a minimum coverage of 10 and a minimum frequency of 0.8. […] This identified the following mutations in the polC gene: D1103Y in strain Efa4; F1276L in strains Efa030, Efa038, and Efa039; F1276I in strains Efa1 and Efa037; F1276S in strain Efa3; A1281T in strains Efa036, Efa040 and Efa041. Strains Efa036, Efa039, and Efa040 each had only one polymorphism identified.

[8] = S. aureus MRSA NRS 384, Table 1, independent experiment
[9] = ATCC29212, E. faecalis ATCC 29212, Table 1, single replicate, read-out: Measured MIC
[10] = ATCC25922, E. coli ATCC 25922, Table 1, single replicate, read-out: Measured MIC
[11] = E. faecium VRE ATCC 700221, Table 1, single replicate
[12] = S. pneumoniae PRSP ATCC 49619, Table 1, single replicate
[13] = S. aureus ATCC 29213, Table 1, single replicate
[14] = read-out: Measured MIC, polC A1281T, strain Efa036, selected on 2 mg/L ACX-641
[15] = read-out: Measured MIC, polC A1281T, strain Efa040, selected on 4 mg/L ACX-671
[16] = read-out: Measured MIC, polC F1276I, strain Efa037, selected on 4 mg/L ACX-641
[17] = read-out: Measured MIC, polC F1276L, strain Efa030, selected on 16 mg/L ACX-728
[18] = read-out: Measured MIC, polC F1276S, strain Efa3, selected on 16 mg/L ACX-728

Compound: O=c1[nH]c(NCc2ccc3c(c2)OC(F)(F)O3)nc2c(F)nn(CCO)c12 [ACX-801, 5-(((2,2-difluorobenzo[d][1,3]dioxol-5-yl)methyl)amino)-3-fluoro-1-(2-hydroxyethyl)-1,6-dihydro-7H-pyrazolo[4,3-d]pyrimidin-7-one]
- MIC [1, 8]: 2 mg/L (≈ 5.22 µM)
- MIC [2, 9]: 2 mg/L (≈ 5.22 µM)
- MIC [3, 10]: > 64 mg/L
- MIC [4, 11]: 1 mg/L (≈ 2.61 µM)
- Measured MIC [4]: 1 mg/L
- increased potency compared to IBZ ([4]; against Gram-positive bacteria, including MRSA and VRE (Table 1)): 2- to 4 fold
- MIC [5, 12]: 4 mg/L (≈ 10.4 µM)
- MIC [6, 13]: 2 mg/L (≈ 5.22 µM)
- raise of MIC by A1281T [7]: up to 32 fold
- MIC [7, 14]: 16 mg/L
- MIC [7, 15]: 32 mg/L
- MIC [7, 16]: > 64 mg/L
- MIC [7, 17]: 64 mg/L
- MIC [7, 18]: 32 mg/L

Compound: O=c1[nH]c(NCc2ccc(Cl)c(Cl)c2)nc2ncn(CCN3CCOCC3)c12 [IBZ, N^2-(3,4-dichlorobenzyl)-7-(2-[1-morpholinyl]ethyl)guanine]
- MIC [1, 8]: 8 mg/L (≈ 18.9 µM)
- MIC [2, 9]: 8 mg/L (≈ 18.9 µM)
- MIC [3, 10]: > 64 mg/L
- MIC [4, 11]: 2 mg/L (≈ 4.72 µM)
- Measured MIC [4]: 2 mg/L
- MIC [5, 12]: 2 mg/L (≈ 4.72 µM)
- MIC [6, 13]: 8 mg/L (≈ 18.9 µM)
- raise of MIC by A1281T [7]: up to eightfold
- MIC [7, 14]: 16 mg/L
- MIC [7, 15]: 8 mg/L
- MIC [7, 16]: > 64 mg/L
- MIC [7, 17]: > 64 mg/L
- MIC [7, 18]: 16 mg/L

Compound: CC(=O)NC[C@H]1CN(c2ccc(N3CCOCC3)c(F)c2)C(=O)O1 [LZD, linezolid]
- MIC [1]: 2 mg/L (≈ 5.93 µM)
- MIC ([2]; ATCC29212, read-out: Measured MIC): 2 mg/L (≈ 5.93 µM)
- MIC ([3]; ATCC25922, read-out: Measured MIC): > 64 mg/L
- MIC [4]: 4 mg/L (≈ 11.9 µM)
- Measured MIC [4]: 4 mg/L
- MIC [5]: 1 mg/L (≈ 2.96 µM)
- MIC [6]: 4 mg/L (≈ 11.9 µM)
- MIC [7, 14]: 4 mg/L
- MIC [7, 15]: 4 mg/L
- MIC [7, 16]: 4 mg/L
- MIC [7, 17]: 4 mg/L
- MIC [7, 18]: 4 mg/L
